# Patent publication US6815557B2, “Tryptase inhibitors” (Altana Pharma AG, priority 1999, dated 2004)
# Counter-ions that a name gives are not always drawn.
# Molecular target: human tryptase
# Test: Inhibition of human tryptase (apparent dissociation constant Kiapp, chromogenic substrate tos-Gly-Pro-arg-pNA, heparin-stabilized)
# Type: biochemical
# Conditions: apparent dissociation constant in the presence of substrate; human tryptase from lung tissue or recombinant; heparin 0.1-50 μg/ml; equilibrium conditions
# Text: The documented pathophysiological effects of mast cell tryptase are caused directly by the enzymatic activity of the protease. Accordingly, they are reduced or blocked by inhibitors which inhibit the enzymatic activity of the tryptase. A suitable measure for the affinity of a reversible inhibitor to the target protease is the equilibrium dissociation constant Ki of the enzyme-inhibitor complex. This Ki value can be determined via the effect of the inhibitor on the tryptase-induced cleavage of a chromogenic peptide-p-nitroanilide substrate or a fluorogenic peptide-aminomethylcoumarin substrate.
# The dissociation constants for the tryptase-inhibitor complexes are determined under equilibrium conditions in accordance with the general proposals of Bieth (Bieth J G, Pathophysiological Interpretation of kinetic constants of protease inhibitors, Bull. Europ. Physiopath. Resp. 16:183-195, 1980) and the methods of Sommerhoff et al. (Sommerhoff C P et al., A Kazal-type inhibitor of human mast cell tryptase: Isolation from the medical leech Hirudo medicinalis, characterization, and sequence analysis, Biol. Chem. Hoppe-Seyler 375: 685-694, 1994).
# Human tryptase is isolated from lung tissue or prepared recombinantly; the specific activity of the protease, determined by titration, is usually greater than 85% of the theoretical value. […] After an equilibrium between the reaction partners has formed, the remaining enzyme activity after addition of the peptide-p-nitroanilide substrate tos-Gly-Pro-arg-pNA is determined and the cleavage of the latter is monitored at 405 nm for 3 min. Alternatively, the remaining enzymatic activity can also be determined using fluorogenic substrates. The apparent dissociation constants Kiapp (i.e. in the presence of substrate) are subsequently determined by adapting the enzyme rates to the general equation for reversible inhibitors (Morrison J F, Kinetics of the reversible inhibition of enzyme-catalyzed reactions by tight-binding inhibitors, Biochim. Biophys. Acta 185, 269-286, 1969) using non-linear regression: […]
row,Ki,Structure (SMILES)
1,450 nM,"NCc1ccc(CNC(=O)OCC#CC#CCOC(=O)NCc2ccc(CN)cc2)cc1 [Compound 2, 1,6-Bis-(4-aminomethylbenzylaminocarbonyl-1-oxy-2,4-hexadiynedihydrochloride]"
2,6 nM,"NCc1cccc(CNC(=O)OCCOCC#CCOCCOC(=O)NCc2cccc(CN)c2)c1 [Compound 1, 1,4-Bis-(3-aminomethylbenzylaminocarbonyl-1,2-dioxyethyl)-2-butyne dihydrochloride]"
3,100 nM,"NCc1cccc(CNC(=O)OCC#CCOC(=O)NCc2cccc(CN)c2)c1 [Compound 3, 1,4-Bis-(3-aminomethylbenzylaminocarbonyl-1-oxy)-2-butyne dihydrochloride]"
